Common to all, as to format: biochemical
The target of one assay is TRKB (Homo sapiens, UniProt Q16620). The assay is described as follows: Kinase profile panel IC50.
The next assay deals with ROS (Homo sapiens, UniProt P08922). The experiment in a line: Kinase profile panel IC50.
The target in another assay is HIPK1 (Homo sapiens, UniProt Q86Z02). The experiment in a line: Kinase profile panel IC50.
A further assay concerns the target HIPK2 (Homo sapiens, UniProt Q9H2X6). The experiment in a line: Kinase profile panel IC50.
The target in the next assay is PIM1 (Homo sapiens, UniProt P11309). The experiment in a line: Kinase profile panel IC50.
A further assay deals with PIM2 (Homo sapiens, UniProt Q9P1W9). The assay is described as follows: Kinase profile panel IC50.
For a further assay, the target named is T1, haspin (Homo sapiens, UniProt Q8TF76).
T1 construct: purchased Carna Bioscience (vendor's assay)
T1 sequence (Q8TF76 1-798): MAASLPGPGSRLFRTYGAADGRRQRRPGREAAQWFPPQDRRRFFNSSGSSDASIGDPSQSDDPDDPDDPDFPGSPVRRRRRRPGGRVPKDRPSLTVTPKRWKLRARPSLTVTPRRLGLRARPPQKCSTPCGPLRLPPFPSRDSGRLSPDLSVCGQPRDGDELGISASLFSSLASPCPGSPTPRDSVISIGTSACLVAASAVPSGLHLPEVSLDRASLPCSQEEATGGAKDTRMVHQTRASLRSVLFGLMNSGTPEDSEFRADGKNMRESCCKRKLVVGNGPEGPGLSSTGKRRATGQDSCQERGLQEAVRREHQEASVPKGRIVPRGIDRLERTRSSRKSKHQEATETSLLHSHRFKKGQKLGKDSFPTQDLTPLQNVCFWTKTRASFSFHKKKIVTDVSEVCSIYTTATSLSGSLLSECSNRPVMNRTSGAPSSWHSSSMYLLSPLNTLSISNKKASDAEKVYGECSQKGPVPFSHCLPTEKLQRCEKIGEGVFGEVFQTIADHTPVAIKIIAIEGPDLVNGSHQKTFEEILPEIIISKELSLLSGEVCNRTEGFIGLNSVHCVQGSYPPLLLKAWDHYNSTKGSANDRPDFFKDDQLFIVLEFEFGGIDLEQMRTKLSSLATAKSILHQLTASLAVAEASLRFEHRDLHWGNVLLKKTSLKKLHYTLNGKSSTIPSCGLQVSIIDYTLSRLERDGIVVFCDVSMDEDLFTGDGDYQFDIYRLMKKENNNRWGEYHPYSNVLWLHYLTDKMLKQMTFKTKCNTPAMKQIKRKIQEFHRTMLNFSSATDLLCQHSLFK
The assay is described as follows: Carna Bioscience haspin assay.

Assay [1] deals with panel of two hundred and seventy kinases. The assay is described as follows: Functional inhibition profiling against kinase panel at 10 μM. The settings on record: panel of 270 kinases.
In assay [2] the target is T2, human Haspin (MBP-Haspin) (Homo sapiens, UniProt Q8TF76).
T2 construct: This full-length Haspin gene was cloned into the pMALc2E vector; made in house; host or cells: E. coli Rosetta2(DE3)pLysS
T2 sequence (Q8TF76 1-798): T1 sequence (Q8TF76 1-798)
The experiment in a line: TR-FRET Haspin assay. The settings on record: for haspin inhibitory activity (SAR, in words): compared with LDN-192960. The text has this: To identify Haspin inhibitors by high throughput screening, a homogeneous kinase assay based on time-resolved fluorescence resonance energy transfer (TR-FRET) was designed. […] Such TR-FRET assays use a lanthanide donor species conjugated to a phospho-specific antibody that binds specifically to the product of kinase reaction labeled with an acceptor fluorophore. This induced proximity of the donor and acceptor fluorophores leads to resonance energy transfer, resulting in a detectable increase of TR-FRET signal.
In the assay described below, a Europium chelate, conjugated to an anti-Histone H3T3ph antibody, as the donor species was used. The acceptor fluorophore, allophycocyanin (APC) was used as a streptavidin conjugate that could bind to a biotinylated Histone H3 peptide substrate. […] Lanthanide ions like Europium have a much longer emission lifetime, often measured in hundreds of microseconds, compared with traditional organic reagents that have lifetimes measured on the scale of […]. TR-FRET assays are thus less susceptible to compound interference generated by short-lived compound or matrix component fluorescence. Furthermore, TR-FRET can be carried out in a homogeneous format that avoids time-consuming separation steps that introduce variability. Based on these properties TR-FRET based assay kinases have been widely used in high throughput screening.
The reaction was incubated for 10 minutes at room temperature. Reaction was terminated by the addition of 10 μl 50 mM EDTA, 2 nM Europium labeled anti-Histone H3T3ph antibody, 40 nM Streptavidin-APC.
Data were analyzed using GraphPad Prism Version 4 (GraphPad Software Inc, La Jolla, Calif.). No inhibitor (“MAX”) and Staurosporine inhibitor (“MIN”) controls were used to calculate Z′ values and signal to background ratios during the high throughput screen. […] Km concentrations were also determined by non-linear regression.
(§1) The human haspin kinase inhibitory activity of the various compounds was evaluated using the same assay utilized for the HTS, except in the presence of varying test compound concentrations. DYRK2 kinase inhibitory activity was measured by ^33P-incorporation into Woodtide peptide substrate in the presence of human DYRK2 containing an N-terminal GST-fusion protein and γ^33P-ATP.
(Time-resolved FRET reads energy transfer from a long-lived donor to a nearby acceptor.)

For a further assay, the target named is T3, human DYRK2 (GST-DYRK2) (Homo sapiens, UniProt Q92630).
T3 construct: purchased Carna Biosciences, Japan
T3 sequence (Q92630 1-601): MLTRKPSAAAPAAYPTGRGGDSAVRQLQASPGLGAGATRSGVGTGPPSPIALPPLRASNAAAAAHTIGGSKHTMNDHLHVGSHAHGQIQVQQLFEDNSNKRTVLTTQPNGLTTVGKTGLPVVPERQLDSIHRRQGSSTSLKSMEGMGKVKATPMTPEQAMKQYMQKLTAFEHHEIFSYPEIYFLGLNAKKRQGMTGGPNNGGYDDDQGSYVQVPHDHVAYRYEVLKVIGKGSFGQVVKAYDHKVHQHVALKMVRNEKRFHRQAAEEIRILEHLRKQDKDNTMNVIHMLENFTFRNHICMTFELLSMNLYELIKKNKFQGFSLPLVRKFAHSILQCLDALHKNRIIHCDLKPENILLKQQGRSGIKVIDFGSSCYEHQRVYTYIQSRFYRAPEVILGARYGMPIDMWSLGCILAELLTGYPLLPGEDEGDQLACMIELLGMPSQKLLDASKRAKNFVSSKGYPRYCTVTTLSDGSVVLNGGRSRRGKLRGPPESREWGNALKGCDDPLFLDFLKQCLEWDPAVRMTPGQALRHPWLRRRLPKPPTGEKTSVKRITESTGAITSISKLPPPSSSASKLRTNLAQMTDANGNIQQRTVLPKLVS
The assay is described as follows: DYRK2 inhibitor assay (33P incorporation into Woodtide peptide). The conditions noted are these: for IC50: DYRK2 assay of Example 7; for DYRK2 inhibitory activity (SAR, in words): compared with LDN-192960. As to the method:
Reactions were stopped after 10 minutes by addition of 30 mM EDTA followed by spotting 10 μl of the reaction mix on to P81 phosphocellulose filter (Whatman). […] Background level of ^33P incorporation was defined from control reaction lacking peptide.
as §1

TRKB, sequence (Q16620 32-822, species assumed): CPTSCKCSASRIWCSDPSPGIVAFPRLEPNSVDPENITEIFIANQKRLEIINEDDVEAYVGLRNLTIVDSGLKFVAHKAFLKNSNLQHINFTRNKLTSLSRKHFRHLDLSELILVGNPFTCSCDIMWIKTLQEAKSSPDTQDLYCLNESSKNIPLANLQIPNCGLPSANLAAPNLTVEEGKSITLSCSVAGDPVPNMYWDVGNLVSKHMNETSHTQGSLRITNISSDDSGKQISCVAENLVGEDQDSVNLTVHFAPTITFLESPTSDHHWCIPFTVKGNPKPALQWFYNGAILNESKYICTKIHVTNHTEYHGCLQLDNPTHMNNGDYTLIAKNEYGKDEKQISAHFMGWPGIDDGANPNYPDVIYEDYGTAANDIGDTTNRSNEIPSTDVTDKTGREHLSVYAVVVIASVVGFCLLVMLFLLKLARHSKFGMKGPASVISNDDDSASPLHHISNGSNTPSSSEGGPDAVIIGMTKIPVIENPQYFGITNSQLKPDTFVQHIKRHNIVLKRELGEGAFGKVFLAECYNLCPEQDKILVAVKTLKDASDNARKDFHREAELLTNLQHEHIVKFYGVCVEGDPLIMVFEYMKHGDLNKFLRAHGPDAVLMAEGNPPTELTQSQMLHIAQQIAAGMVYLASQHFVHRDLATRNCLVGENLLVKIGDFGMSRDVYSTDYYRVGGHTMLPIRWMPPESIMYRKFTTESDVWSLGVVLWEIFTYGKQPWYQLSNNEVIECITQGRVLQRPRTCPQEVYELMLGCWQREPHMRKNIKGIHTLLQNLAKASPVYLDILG
PIM1, sequence (P11309 whole entry, species assumed): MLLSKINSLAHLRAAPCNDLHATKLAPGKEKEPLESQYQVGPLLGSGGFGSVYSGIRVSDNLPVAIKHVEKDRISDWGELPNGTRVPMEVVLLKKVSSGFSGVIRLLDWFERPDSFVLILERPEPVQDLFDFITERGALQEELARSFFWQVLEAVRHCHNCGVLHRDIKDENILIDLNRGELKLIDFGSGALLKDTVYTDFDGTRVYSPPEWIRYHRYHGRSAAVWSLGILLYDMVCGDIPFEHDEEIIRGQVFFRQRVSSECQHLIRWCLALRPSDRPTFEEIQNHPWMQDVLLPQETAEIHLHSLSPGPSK
ROS, sequence (P08922 28-2347, species assumed): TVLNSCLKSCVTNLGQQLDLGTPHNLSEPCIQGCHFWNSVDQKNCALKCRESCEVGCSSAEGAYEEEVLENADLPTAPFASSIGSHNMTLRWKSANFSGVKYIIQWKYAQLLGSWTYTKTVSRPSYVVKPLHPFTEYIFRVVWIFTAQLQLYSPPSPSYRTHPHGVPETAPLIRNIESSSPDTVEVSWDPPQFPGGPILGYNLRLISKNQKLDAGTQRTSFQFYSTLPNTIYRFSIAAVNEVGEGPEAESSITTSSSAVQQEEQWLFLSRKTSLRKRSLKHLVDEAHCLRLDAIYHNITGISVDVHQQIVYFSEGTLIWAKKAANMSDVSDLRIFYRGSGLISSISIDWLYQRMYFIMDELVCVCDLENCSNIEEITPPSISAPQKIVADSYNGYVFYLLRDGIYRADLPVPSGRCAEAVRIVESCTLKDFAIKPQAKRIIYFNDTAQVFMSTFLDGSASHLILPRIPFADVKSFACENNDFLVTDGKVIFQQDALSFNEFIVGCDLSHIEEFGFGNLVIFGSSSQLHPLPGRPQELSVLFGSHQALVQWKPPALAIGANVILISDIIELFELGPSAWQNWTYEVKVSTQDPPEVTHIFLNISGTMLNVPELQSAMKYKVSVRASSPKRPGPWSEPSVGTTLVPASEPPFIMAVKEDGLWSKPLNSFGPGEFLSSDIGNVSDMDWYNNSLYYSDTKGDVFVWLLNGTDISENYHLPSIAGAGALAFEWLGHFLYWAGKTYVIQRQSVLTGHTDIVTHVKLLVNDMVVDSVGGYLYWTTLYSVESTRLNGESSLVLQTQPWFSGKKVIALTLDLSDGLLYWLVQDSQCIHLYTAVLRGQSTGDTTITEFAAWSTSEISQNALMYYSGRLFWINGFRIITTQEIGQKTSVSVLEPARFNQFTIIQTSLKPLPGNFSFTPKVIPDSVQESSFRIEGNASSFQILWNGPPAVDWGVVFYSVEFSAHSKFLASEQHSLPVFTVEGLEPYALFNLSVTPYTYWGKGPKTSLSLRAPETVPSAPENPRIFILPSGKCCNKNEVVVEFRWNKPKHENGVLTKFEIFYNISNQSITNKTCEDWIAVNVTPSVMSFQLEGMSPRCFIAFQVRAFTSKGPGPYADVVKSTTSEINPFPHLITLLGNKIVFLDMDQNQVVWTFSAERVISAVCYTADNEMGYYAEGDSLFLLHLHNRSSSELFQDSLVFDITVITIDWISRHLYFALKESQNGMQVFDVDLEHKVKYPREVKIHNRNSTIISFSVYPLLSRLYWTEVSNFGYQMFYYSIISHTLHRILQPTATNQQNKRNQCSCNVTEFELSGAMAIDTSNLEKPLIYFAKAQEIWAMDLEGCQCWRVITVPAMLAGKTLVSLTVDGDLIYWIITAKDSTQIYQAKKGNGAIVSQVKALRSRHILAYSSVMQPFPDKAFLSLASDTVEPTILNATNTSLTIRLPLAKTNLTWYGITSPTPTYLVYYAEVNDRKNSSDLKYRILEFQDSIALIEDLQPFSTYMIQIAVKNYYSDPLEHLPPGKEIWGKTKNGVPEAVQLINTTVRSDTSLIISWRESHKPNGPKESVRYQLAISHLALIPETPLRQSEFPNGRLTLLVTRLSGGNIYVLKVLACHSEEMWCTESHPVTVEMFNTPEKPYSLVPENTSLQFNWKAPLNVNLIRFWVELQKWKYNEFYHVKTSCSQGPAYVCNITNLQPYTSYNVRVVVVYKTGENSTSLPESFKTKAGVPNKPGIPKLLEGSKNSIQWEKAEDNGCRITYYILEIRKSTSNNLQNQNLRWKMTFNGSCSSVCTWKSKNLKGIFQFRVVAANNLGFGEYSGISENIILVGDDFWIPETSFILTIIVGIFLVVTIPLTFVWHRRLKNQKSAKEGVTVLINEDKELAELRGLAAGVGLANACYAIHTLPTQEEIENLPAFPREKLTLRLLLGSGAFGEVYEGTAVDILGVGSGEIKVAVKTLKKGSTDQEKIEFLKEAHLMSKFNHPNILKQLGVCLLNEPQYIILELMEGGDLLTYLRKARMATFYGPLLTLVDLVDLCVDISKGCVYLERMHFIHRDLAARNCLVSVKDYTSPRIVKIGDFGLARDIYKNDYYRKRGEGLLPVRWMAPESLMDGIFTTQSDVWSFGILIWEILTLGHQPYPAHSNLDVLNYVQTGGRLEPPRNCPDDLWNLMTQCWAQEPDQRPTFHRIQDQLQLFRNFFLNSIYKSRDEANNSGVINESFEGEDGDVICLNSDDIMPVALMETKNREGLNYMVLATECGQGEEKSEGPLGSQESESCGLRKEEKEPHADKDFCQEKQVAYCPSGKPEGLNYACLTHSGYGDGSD
PIM2, sequence (Q9P1W9 whole entry, species assumed): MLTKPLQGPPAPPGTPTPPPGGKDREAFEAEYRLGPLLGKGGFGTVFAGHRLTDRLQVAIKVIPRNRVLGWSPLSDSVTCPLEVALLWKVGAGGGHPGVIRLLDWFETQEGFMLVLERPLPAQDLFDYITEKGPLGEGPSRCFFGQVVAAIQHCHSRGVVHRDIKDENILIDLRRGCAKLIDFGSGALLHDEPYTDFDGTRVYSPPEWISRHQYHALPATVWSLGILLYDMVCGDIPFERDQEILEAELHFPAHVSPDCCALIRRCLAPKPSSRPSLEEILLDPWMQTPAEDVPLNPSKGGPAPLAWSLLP
HIPK2, sequence (Q9H2X6 whole entry, species assumed): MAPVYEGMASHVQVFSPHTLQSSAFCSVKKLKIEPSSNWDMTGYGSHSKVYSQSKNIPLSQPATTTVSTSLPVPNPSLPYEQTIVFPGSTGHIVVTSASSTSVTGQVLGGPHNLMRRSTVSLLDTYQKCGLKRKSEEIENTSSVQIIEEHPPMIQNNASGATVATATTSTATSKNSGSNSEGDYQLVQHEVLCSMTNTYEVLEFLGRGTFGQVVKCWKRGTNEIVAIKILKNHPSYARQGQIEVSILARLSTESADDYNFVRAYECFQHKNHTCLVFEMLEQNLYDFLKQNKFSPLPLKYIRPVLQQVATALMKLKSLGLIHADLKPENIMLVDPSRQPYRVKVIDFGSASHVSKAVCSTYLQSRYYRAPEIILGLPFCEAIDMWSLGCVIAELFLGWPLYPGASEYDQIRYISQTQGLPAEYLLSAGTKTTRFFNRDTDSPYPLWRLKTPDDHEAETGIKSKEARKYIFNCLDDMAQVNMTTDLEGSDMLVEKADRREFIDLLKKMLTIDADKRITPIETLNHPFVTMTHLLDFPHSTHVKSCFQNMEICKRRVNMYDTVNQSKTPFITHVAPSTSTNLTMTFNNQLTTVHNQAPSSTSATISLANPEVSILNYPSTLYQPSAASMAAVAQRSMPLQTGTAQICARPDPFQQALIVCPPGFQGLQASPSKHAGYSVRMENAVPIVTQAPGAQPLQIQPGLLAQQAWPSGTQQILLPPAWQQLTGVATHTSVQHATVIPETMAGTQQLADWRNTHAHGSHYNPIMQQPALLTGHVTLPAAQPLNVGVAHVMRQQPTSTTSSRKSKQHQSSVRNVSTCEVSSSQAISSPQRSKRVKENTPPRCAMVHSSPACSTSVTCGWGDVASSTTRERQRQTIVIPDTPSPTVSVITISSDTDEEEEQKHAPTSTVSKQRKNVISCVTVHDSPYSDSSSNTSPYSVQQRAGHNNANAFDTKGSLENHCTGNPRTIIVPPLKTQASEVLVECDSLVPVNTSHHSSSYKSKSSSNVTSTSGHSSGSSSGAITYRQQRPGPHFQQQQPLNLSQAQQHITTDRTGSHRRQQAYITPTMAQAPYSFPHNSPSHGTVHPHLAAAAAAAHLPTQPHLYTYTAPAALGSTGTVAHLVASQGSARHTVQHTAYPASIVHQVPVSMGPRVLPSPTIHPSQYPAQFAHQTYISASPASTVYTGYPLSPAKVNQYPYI

Usually IC50 stands for the point on the concentration scale where inhibition reaches its midpoint. The low end stands for inhibition by little substance, the high end for a need for much substance. By inhibition is commonly meant the relative decrease from the control value, in per cent. A higher inhibition goes with a response far below the control. As to `COc1ccc2nc3ccc(OC)cc3c(SCCCN)c2c1` [LDN-192960], the IC50 turned out to be 91000 nM at TRKB; 1600 nM against ROS; 1400 nM on HIPK1; 1300 nM on HIPK2; 720 nM against PIM1; 56000 nM against PIM2. Moreover, on haspin, the inhibition at 10 µM is 100%. Besides, the “number of other kinases inhibited by ≧90%” value in [1] was “ten”.
`COc1cc2nc3ccccc3c(SCCCN)c2cc1OC` [LDN-192965] gave an IC50 in assay [2] (TR-FRET assay of Example 3) above 20000 nM. In addition, in assay [2], the “haspin inhibitory activity (SAR, in words)” value (shortened to “haspin inhibitory activity”) is given as “loss of activity”. At human DYRK2 (GST-DYRK2), the IC50 is above 10000 nM and the “DYRK2 inhibitory activity (SAR, in words)” value (“DYRK2 inhibitory activity” below) is on record as “loss in activity”.
As to `NCCCSc1c2cc(O)ccc2nc2ccc(O)cc12` [LDN-209838], the IC50 in assay [2] (TR-FRET assay of Example 3) was below 50 nM; against human DYRK2 (GST-DYRK2), below 200 nM.
The matching figures for `COc1cc(OC)c2nc3ccccc3c(NCCCN(C)C)c2c1` [LDN-209839]: above 20000 nM and above 10000 nM.
For `CCN(CC)CCCNc1c2ccccc2nc2c(OC)cc(OC)cc12` [LDN-209840] the same measures were above 20000 nM and above 1000 nM.
`COc1ccc2nc3ccccc3c(SCCCN)c2c1` [LDN-209856]: the figures for the IC50 (in assay [2] (TR-FRET assay of Example 3); in [2] (text of SAR study); at human DYRK2 (GST-DYRK2)) were below 50 nM, below 100 nM and below 200 nM, respectively. Moreover, on human DYRK2 (GST-DYRK2), the “DYRK2 inhibitory activity” value is on record as “significant erosion of potency”.
The matching figures for `COc1ccc2nc3ccc(C)cc3c(SCCCN)c2c1` [LDN-209928]: below 100 nM, below 100 nM, below 500 nM and “not as tolerated”.
On to `COc1ccc2nc3ccc(Cl)cc3c(SCCCN)c2c1` [LDN-209929], for which, in assay [2], the “selectivity for haspin versus DYRK2” value came to 180 fold. For the same molecule, the IC50 in [2] (TR-FRET assay of Example 3) is below 100 nM; in assay [2] (text of SAR study) it was below 60 nM; on human DYRK2 (GST-DYRK2), below 10000 nM. The “DYRK2 inhibitory activity” value on human DYRK2 (GST-DYRK2) is “not as tolerated”.
Consider `COc1cc2c(SCCCN)c3ccccc3nc2cc1Cl` [LDN-209957], for which the IC50 in assay [2] (TR-FRET assay of Example 3) is below 100 nM. Moreover, in assay [2], the “haspin inhibitory activity” value was “still quite active”. Also, on human DYRK2 (GST-DYRK2), the IC50 was below 10000 nM and the “DYRK2 inhibitory activity” value is given as “not tolerated”.
As for `COc1ccc2nc3ccc(OC)cc3c(SCCN)c2c1` [LDN-209958], the IC50 is below 200 nM in [2] (TR-FRET assay of Example 3) and below 500 nM at human DYRK2 (GST-DYRK2). Besides, in assay [2], the “haspin inhibitory activity” value is “reduced activity”.
For `COc1ccc2nc3ccc(OC)cc3c(SCCCCN)c2c1` [LDN-209959], the IC50 (in [2] (TR-FRET assay of Example 3); at human DYRK2 (GST-DYRK2)) was below 50 nM throughout. Besides, the “haspin inhibitory activity” value in assay [2] is on record as “only a minimal impact on potency”.
Consider `CNCCCSc1c2cc(OC)ccc2nc2ccc(OC)cc12` [LDN-209960], for which the concentration for half-maximal inhibition (IC50) is below 10 nM in assay [2] (TR-FRET assay of Example 3) and below 200 nM on human DYRK2 (GST-DYRK2). The “haspin inhibitory activity” value in [2] was “equally potent”.
On to `NCCCSc1c2ccccc2nc2ccccc12` [LDN-209961], for which the IC50 in assay [2] (TR-FRET assay of Example 3) is below 10000 nM. Besides, in assay [2], the “haspin inhibitory activity” value is “inhibitory activity was dramatically reduced”. On human DYRK2 (GST-DYRK2), the IC50 is below 10000 nM and the “DYRK2 inhibitory activity” value is recorded as “very detrimental”.
The molecule `COc1ccc2nc3ccc(OC)cc3c(NCCCN)c2c1` [LDN-209962] showed an IC50 in assay [2] (TR-FRET assay of Example 3) below 5000 nM. The “haspin inhibitory activity” value in assay [2] is recorded as “detrimental”. At human DYRK2 (GST-DYRK2), the IC50 is below 10000 nM and the “DYRK2 inhibitory activity” value was “detrimental to DYRK2 inhibition”.
Molecule `COc1ccc2nc3ccc(OC)cc3c(OCCCN)c2c1` [LDN-209963] showed an IC50 in assay [2] (TR-FRET assay of Example 3) above 20000 nM. For the same molecule, the “haspin inhibitory activity” value in assay [2] is given as “detrimental”. Moreover, at human DYRK2 (GST-DYRK2), the IC50 is above 20000 nM and the “DYRK2 inhibitory activity” value is “detrimental to DYRK2 inhibition”.
`COc1ccc2nc(-c3ccccc3)cc(SCCCN)c2c1` [LDN-209964]: the IC50 was below 10000 nM in assay [2] (TR-FRET assay of Example 3) and above 10000 nM on human DYRK2 (GST-DYRK2).
With `COc1ccc2nc3ccc(OC)cc3c(CCCCN)c2c1` [LDN-209973], the results for the IC50 (in [2] (TR-FRET assay of Example 3); on human DYRK2 (GST-DYRK2)) were below 50 nM and below 500 nM, respectively. Further, in assay [2], the “haspin inhibitory activity” value is “retained potent inhibitory activity”. Besides, on human DYRK2 (GST-DYRK2), the “DYRK2 inhibitory activity” value is reported as “tolerated”. For the same molecule, the “reduction in DYRK2 potency” value on human DYRK2 (GST-DYRK2) (relative to LDN-192960 (sulfur replaced with methylene)) was found to be 5 fold.
As to `COc1ccc2nc3c(c(SCCCN)c2c1)CCCC3` [LDN-211840], the IC50 in assay [2] (TR-FRET assay of Example 3) was below 500 nM; on human DYRK2 (GST-DYRK2), below 10000 nM.
Molecule `COc1ccc2nc3ccc(OC)cc3c(SCCCN3C(=O)c4ccccc4C3=O)c2c1` [LDN-211848] showed an IC50 in assay [2] (TR-FRET assay of Example 3) below 10000 nM. Also, in [2], the “haspin inhibitory activity” value is listed as “significant loss of activity”. Also, on human DYRK2 (GST-DYRK2), the “DYRK2 inhibitory activity” value is “moderately potent”.
Take `COc1ccc2nc3ccccc3c(SCCCN3C(=O)c4ccccc4C3=O)c2c1` [LDN-211849]: the IC50 in assay [2] (TR-FRET assay of Example 3) was below 10000 nM; on human DYRK2 (GST-DYRK2), below 1000 nM. In addition, the “haspin inhibitory activity” value in assay [2] is “significant loss of activity”.
For `COc1ccc2nc3ccc(OC)cc3c(SCCCN(C)C)c2c1` [LDN-212055] the same measures were below 50 nM, below 500 nM and “slight decrease in activity”.
